Measurements from PubChem BioAssay (NCI).
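1) Cells in 96-well plates. 2) Compound, 48 h, 5 concentrations. 3) Linear interpolation between surrounding doses. 4) Unreached endpoint = highest concentration. TGI: total growth inhibition.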

Tests used:
Assay in all cases: NCI anticancer screen, dose series, 48 h
A549 NSCLC = tested on: A549 NSCLC
HCT-116 colon = tested on: HCT-116 colon
SN12C renal = tested on: SN12C renal
M14 melanoma = tested on: M14 melanoma
MDA-N = tested on: MDA-N
IGROV1 ovarian = tested on: IGROV1 ovarian
OVCAR-3 ovarian = tested on: OVCAR-3 ovarian
LOX IMVI melanoma = tested on: LOX IMVI melanoma
UO-31 renal = tested on: UO-31 renal
K-562 leukemia = tested on: K-562 leukemia
A498 renal = tested on: A498 renal
MCF7 breast = tested on: MCF7 breast

Row | SMILES | TGI (A549 NSCLC) [µM] | TGI (HCT-116 colon) [µM] | TGI (SN12C renal) [µM] | TGI (M14 melanoma) [µM] | TGI (MDA-N) [µM] | TGI (IGROV1 ovarian) [µM] | TGI (OVCAR-3 ovarian) [µM] | TGI (LOX IMVI melanoma) [µM] | TGI (UO-31 renal) [µM] | TGI (K-562 leukemia) [µM] | TGI (A498 renal) [µM] | TGI (MCF7 breast) [µM]
1 | CC(=O)O[C@H]1CC[C@H]2[C@@H]3CCC4=C(C(=O)C=CC4(C)OC(C)=O)[C@H]3CC[C@]12C (some centres undefined) | > 100 | > 100 | > 100 | > 100 | > 100 | > 100 | > 100 | > 100 | > 100 | > 100 | > 100 | 73.1
2 | NC1=NN(c2ccccc2)C2(c3ccncc3C(=O)O)C1C(N)=NN2c1ccccc1 (centres undefined) | > 100 | > 100 | > 100 | > 100 | > 100 | > 100 | > 100 | > 100 | > 100 | > 100 | > 100 | > 100
3 | CC1(C)O[C@H]2[C@@H]3N=C(c4ccccc4)O[C@@H]3C=C[C@H]2O1 | > 100 | > 100 | > 100 | > 100 | > 100 | > 100 | > 100 | > 100 | > 100 | > 100 | > 100 | > 100
4 | C=C(CN(C)C)C(=O)c1cc(C)ccc1C | 41.6 | 17.4 | 42.6 | 7.21 | 21.4 | 34.7 | 18.1 | 13.8 | 19.1 | 8.16 | 43.5 | 11.5
5 | COc1ccc(/C=C(\C(=O)OCC(C)C)c2ccc(OC)c(OC)c2)cc1OC | > 100 | > 100 | > 100 | > 100 | > 100 | > 100 | > 100 | > 100 | > 100 | > 100 | > 100 | > 100
6 | COCC(=O)OC1CCn2c1nc1c2C(=O)C(C)=C(NC(C)=O)C1=N (centres undefined) | 42.5 | 11.4 | 13.4 | 15 | 3.23 | 24.2 | 5.85 | 6.04 | 24 | 4.59 | 32.9 | 3.52
7 | O=C1NC(N/N=C/c2ccccc2)=N/C1=C\c1cccs1 | > 100 | 36.3 | 46.4 | > 100 | > 25.2 | 34.4 | 33.9 | 23.4 | 48.7 | > 80.3 | 28 | 46.5
8 | Clc1ccc2c(c1)CC1C[N+]3=C(CCCC3)C1=C2 (centres undefined) | > 100 | > 100 | > 100 | > 100 | > 100 | > 100 | > 100 | > 100 | > 100 | > 100 | > 100 | > 100
9 | O=c1c[n+](-c2ccccc2)[nH]o1 | > 100 | > 100 | > 100 | > 100 | > 100 | > 100 | > 100 | > 100 | > 100 | > 100 | > 100 | > 100
10 | CCCN1CN(c2ccccc2)C2(CCN(CCCC(=O)c3ccc(F)cc3)CC2)C1=O | 29.8 | 8.75 | 15.5 | 25.1 | 23 | 14.8 | 30.3 | 17.1 | 30.2 | > 58.4 | 5.67 | 11.9
11 | CCOC(=O)NC(NNc1ccc([N+](=O)[O-])cc1[N+](=O)[O-])(C(F)(F)F)C(F)(F)F | > 100 | > 100 | > 100 | > 100 | > 100 | > 100 | > 100 | > 100 | 57.6 | > 100 | 73 | > 100
12 | COC(=O)c1cc(-c2ccc(-c3ccc(O)cc3)cc2)cc(-c2ccc(-c3ccc(O)cc3)cc2)c1 | 20.9 | 17.9 | 27 | 30.5 | 23 | 21.1 | 25.6 | 18.4 | 23.6 | 17.6 | 34.7 | 25.9
